Measured values: patent publication US20250114472A1, “CONJUGATE AND USE THEREOF” (BEIJING CHEMPION BIOTECHNOLOGY CO., LTD., priority 2022, published 2025)
pIC50: −log10 of the molar value. Where a SMILES comes first, the peptide text is derived from it. [ ]: non-standard residue; d: D form. The star is where a group is joined. Dolaproine = CO[C@@H]([C@@H]1CCCN1)[C@@H](C)C(=O)O; Dil = CC[C@H](C)[C@H](NC)[C@@H](CC(=O)O)OC; X1 = C[C@@H](N*)[C@@H](O)c1ccccc1; NMeV = CN[C@H](C(=O)O)C(C)C

Test system: NCI-N87 cells
Experiment: Cytotoxicity assay (Cell Titer Glo cell viability)
Format: cell-based
Conditions: 144 hours, CTG
Text: Cell viability assay was used to detect the cytotoxicity of an ADC antibody on NCI-N87 cells. This method can quantitatively analyze and specifically detect the cytotoxicity of an ADC antibody on NCI-N87 cells. Cells cultured without addition of ADC antibody were used as a blank control to determine the threshold of the cell viability detection. A signal below this threshold was considered as a specific signal generated after the ADC antibody killed cells. NCI-N87 cells (5×10^3 cells/well) were resuspended in a RPMI1640 medium containing 15% FBS and inoculated into a black 96-well plate with transparent bottom in a volume of 50 μL. The 96-well plate was placed in an incubator set at 37° C. and 5% CO2 overnight. After the overnight incubation, 50 μL of different concentrations of ADC antibodies or MMAE (starting from 400 nM, 4-fold serial dilution) were added to the 96-well plate (making the total volume to 100 μL/well), and the 96-well plate was placed in an incubator set at 37° C. and 5% CO2 for 144 hours. Cell Titer Glo (50 μL/well) was added to each well and the mixture was thoroughly mixed. The luciferase intensity was read using Envision. The cytotoxic effect was calculated using the following formula: cytotoxicity %=100* (RFUcell only−RFUsample)/RFUcell only. The IC50 value was calculated by four-parameter nonlinear regression analysis using GraphPad Prism 7 software.

CC[C@H](C)[C@@H]([C@@H](CC(=O)N1CCC[C@H]1[C@H](OC)[C@@H](C)C(=O)N[C@H](C)[C@@H](O)c1ccccc1)OC)N(C)C(=O)[C@@H](NC(=O)[C@@H](NC)C(C)C)C(C)C [MMAE, monomethyl auristatin E] (H-[NMeV]V[Dil][Dolaproine]-X1)
Max Inh % (from 400 nM): 90.41% | pIC50 (Homo sapiens): 9.92
